# How the values were obtained:
# [1] = target: SREBP-2 (Homo sapiens (Human), UniProt Q12772); assay: In vitro assay SREBP-2: PathHunter U2OS SREBP-2 Nuclear Translocation Cell Line, U18666A-stimulated; format: cell-based; conditions: PathHunter U2OS SREBP-2 nuclear translocation cells, U18666A 10 μM, overnight (16 hours)
# [2] = target: LXRβ (Homo sapiens (Human), UniProt P55055); assay: In vitro assay LXRβ: PathHunter NHR CHO cells, LXRβ / Steroid Receptor Co-activator Peptide enzyme fragment complementation; format: cell-based; conditions: PathHunter NHR CHO cells, full-length human LXRβ and SRCP, chemiluminescent signal; read-out: LXRβ PPI
# Chain of LXRβ (P55055 whole entry, the tested form may be a part): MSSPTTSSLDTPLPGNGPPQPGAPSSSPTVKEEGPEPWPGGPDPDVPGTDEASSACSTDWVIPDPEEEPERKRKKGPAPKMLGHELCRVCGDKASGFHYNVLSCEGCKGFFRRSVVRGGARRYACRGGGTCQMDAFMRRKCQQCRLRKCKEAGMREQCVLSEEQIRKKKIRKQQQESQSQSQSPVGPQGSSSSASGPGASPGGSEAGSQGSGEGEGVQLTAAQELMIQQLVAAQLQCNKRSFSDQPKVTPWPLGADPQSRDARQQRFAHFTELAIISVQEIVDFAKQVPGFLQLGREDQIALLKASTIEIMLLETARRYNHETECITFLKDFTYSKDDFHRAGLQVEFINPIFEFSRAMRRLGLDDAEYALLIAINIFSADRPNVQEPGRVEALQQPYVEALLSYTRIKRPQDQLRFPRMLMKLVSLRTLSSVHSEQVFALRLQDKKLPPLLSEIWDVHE
# Summary of the method: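 Co-activator recruitment measured by chemiluminescence after signal generation. The CHO line carries full-length human LXRβ tagged with ProLink and an SRCP–enzyme acceptor fusion in the nucleus; cells sat overnight at 37° C before testing, in charcoal-dextran filtered serum medium with 1% final vehicle.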
SMILES,IC50 [1] [nM],EC50 [2] [nM]
"COc1nccc(N2CCN(C(=O)CC[C@@H](C)[C@H]3CC[C@H]4[C@@H]5CC=C6C[C@@H](O)CC[C@]6(C)[C@H]5CC[C@]34C)CC2)n1 [Example 202, (R)-4-((3S,8S,9S,10R,13R,14S,17R)-3-hydroxy-10,13-dimethyl-2,3,4,7,8,9,10,11,12,13,14,15,16,17-tetradecahydro-1H-cyclopenta[a]phenanthren-17-yl)-1-(4-(2-methoxypyrimidin-4-yl)piperazin-1-yl) pentan-1-one]",< 250,> 10000
"C[C@H](CCC(=O)N(c1ccncc1)C1CC1)[C@H]1CC[C@H]2[C@@H]3CC=C4C[C@@H](O)CC[C@]4(C)[C@H]3CC[C@]12C [Example 548, (4R)-4-[(1R,3aS,3bS,7S,9aR,9bS,11aR)-7-hydroxy-9a,11a-dimethyl-1H,2H,3H,3aH,3bH,4H,6H,7H,8H,9H,9aH,9bH,10H,11H,11aH-cyclopenta[a]phenanthren-1-yl]-N-cyclopropyl-N-(pyridin-4-yl)pentanamide]",< 250,250 to 1000
"C[C@H](CCC(=O)N1CCN(C(=O)c2cn(C)nn2)[C@@H](C)C1)[C@H]1CC[C@H]2[C@@H]3CC=C4C[C@@H](O)CC[C@]4(C)[C@H]3CC[C@]12C [Example 574, (R)-4-((3S,8S,9S,10R,13R,14S,17R)-3-hydroxy-10,13-dimethyl-2,3,4,7,8,9,10,11,12,13,14,15,16,17-tetradecahydro-1H-cyclopenta[a]phenanthren-17-yl)-1-((S)-3-methyl-4-(1-methyl-1H-1,2,3-triazole-4-carbonyl)piperazin-1-yl)pentan-1-one]",< 250,> 10000
"C[C@H](CCC(=O)N1CCN(C(=O)c2ncnn2C)CC1)[C@H]1CC[C@H]2[C@@H]3CC=C4C[C@@H](O)CC[C@]4(C)[C@H]3CC[C@]12C [Example 382, (R)-4-((3S,8S,9S,10R,13R,14S,17R)-3-hydroxy-10,13-dimethyl-2,3,4,7,8,9,10,11,12,13,14,15,16,17-tetradecahydro-1H-cyclopenta[a]phenanthren-17-yl)-1-(4-(1-methyl-1H-1,2,4-triazole-5-carbonyl)piperazin-1-yl)pentan-1-one]",< 250,> 10000
"C[C@H](CCC(=O)N1OC(C)(C)[C@H]2COC[C@H]21)[C@H]1CC[C@H]2[C@@H]3CC=C4C[C@@H](O)CC[C@]4(C)[C@H]3CC[C@]12C [Example 49, (R)-1-((3aR,6aS)-3,3-dimethyltetrahydro-1H,3H-furo[3,4-c]isoxazol-1-yl)-4-((3S,8S,9S,10R,13R,14S,17R)-3-hydroxy-10,13-dimethyl-2,3,4,7,8,9,10,11,12,13,14,15,16,17-tetradecahydro-1H-cyclopenta[a]phenanthren-17-yl)pentan-1-one]",250 to 1000,250 to 1000
"C[C@H](CCC(=O)N1CCC2(CCOC2)CC1)[C@H]1CC[C@H]2[C@@H]3CC=C4C[C@@H](O)CC[C@]4(C)[C@H]3CC[C@]12C [Example 89, (R)-4-((3S,8S,9S,10R,13R,14S,17R)-3-hydroxy-10,13-dimethyl-2,3,4,7,8,9,10,11,12,13,14,15,16,17-tetradecahydro-1H-cyclopenta[a]phenanthren-17-yl)-1-(2-oxa-δ-azaspiro[4.5]decan-δ-yl)pentan-1-one]",< 250,> 10000
"C[C@H](CCC(=O)N1CCN(c2ccncn2)[C@@H](C)C1)[C@H]1CC[C@H]2[C@@H]3CC=C4C[C@@H](O)CC[C@]4(C)[C@H]3CC[C@]12C [Example 575, (4R)-4-[(1R,3aS,3bS,7S,9aR,9bS,11aR)-7-hydroxy-9a,11a-dimethyl-1H,2H,3H,3aH,3bH,4H,6H,7H,8H,9H,9aH,9bH,10H,11H,11aH-cyclopenta[a]phenanthren-1-yl]-1-[(3S)-3-methyl-4-(pyrimidin-4-yl)piperazin-1-yl]pentan-1-one]",< 250,> 10000
"COC(C)C1CCN(C(=O)CC[C@@H](C)[C@H]2CC[C@H]3[C@@H]4CC=C5C[C@@H](O)CC[C@]5(C)[C@H]4CC[C@]23C)CC1 (stereo partly drawn) [Example 469, (4R)-4-((3S,8S,9S,10R,13R,14S,17R)-3-hydroxy-10,13-dimethyl-2,3,4,7,8,9,10,11,12,13,14,15,16,17-tetradecahydro-1H-cyclopenta[a]phenanthren-17-yl)-1-(4-(1-methoxyethyl)piperidin-1-yl)pentan-1-one]",< 250,250 to 1000
"C[C@H](Oc1cccnc1)[C@H]1CC[C@H]2[C@@H]3CC=C4C[C@@H](O)CC[C@]4(C)[C@H]3CC[C@]12C [Example 380, (3S,8S,9S,10R,13S,14S,17S)-10,13-dimethyl-17-((S)-1-(pyridin-3-yloxy)ethyl)-2,3,4,7,8,9,10,11,12,13,14,15,16,17-tetradecahydro-1H-cyclopenta[a]phenanthren-3-ol]",< 250,> 10000
"C[C@H](CCC(=O)N1CCC(F)(F)CC1)[C@H]1CC[C@H]2[C@@H]3CC=C4C[C@@H](O)CC[C@]4(C)[C@H]3CC[C@]12C [Example 79, (R)-1-(4,4-difluoropiperidin-1-yl)-4-((3S,8S,9S,10R,13R,14S,17R)-3-hydroxy-10,13-dimethyl-2,3,4,7,8,9,10,11,12,13,14,15,16,17-tetradecahydro-1H-cyclopenta[a]phenanthren-17-yl) pentan-1-one]",< 250,1000 to 10000
"C[C@H](COC(=O)N1CCN(c2ccncc2)CC1)[C@H]1CC[C@H]2[C@@H]3CC=C4C[C@@H](O)CC[C@]4(C)[C@H]3CC[C@]12C [Example 597, (2S)-2-[(1R,3aS,3bS,7S,9aR,9bS,11aS)-7-hydroxy-9a,11a-dimethyl-1H,2H,3H,3aH,3bH,4H,6H,7H,8H,9H,9aH,9bH,10H,11H,11aH-cyclopenta[a]phenanthren-1-yl]propyl 4-(pyridin-4-yl)piperazine-1-carboxylate]",< 250,> 10000
"C[C@H](CCC(=O)N1CCN(C(=O)c2ccccn2)CC1)[C@H]1CC[C@H]2[C@@H]3CC=C4C[C@@H](O)CC[C@]4(C)[C@H]3CC[C@]12C [Example 335, (4R)-4-[(1R,3aS,3bS,7S,9aR,9bS,11aR)-7-hydroxy-9a,11a-dimethyl-1H,2H,3H,3aH,3bH,4H,6H,7H,8H,9H,9aH,9bH,10H,11H,11aH-cyclopenta[a]phenanthren-1-yl]-1-[4-(pyridine-2-carbonyl)piperazin-1-yl]pentan-1-one]",< 250,> 10000
"Cc1nccc(CC[C@@H](C)[C@H]2CC[C@H]3[C@@H]4CC=C5C[C@@H](O)CC[C@]5(C)[C@H]4CC[C@]23C)n1 [Example 190, (3S,8S,9S,10R,13R,14S,17R)-10,13-dimethyl-17-((R)-4-(2-methylpyrimidin-4-yl)butan-2-yl)-2,3,4,7,8,9,10,11,12,13,14,15,16,17-tetradecahydro-1H-cyclopenta[a]phenanthren-3-ol]",250 to 1000,1000 to 10000
"CON(C(=O)CC[C@@H](C)[C@H]1CC[C@H]2[C@@H]3CC=C4C[C@@H](O)CC[C@]4(C)[C@H]3CC[C@]12C)[C@@H](C)CO [Example 72, (R)-4-((3S,8S,9S,10R,13R,14S,17R)-3-hydroxy-10,13-dimethyl-2,3,4,7,8,9,10,11,12,13,14,15,16,17-tetradecahydro-1H-cyclopenta[a]phenanthren-17-yl)-N—((S)-1-hydroxypropan-2-yl)-N-methoxypentanamide]",250 to 1000,250 to 1000
